# Data: patent US20090325202A1, “Methods for Developing and Assessing Therapeutic Agents” (priority 2006, published 2009)
# Assays:
# [1] = test system: S6 ribosomal protein; experiment: Panc 265 xenograft in vivo FNAB smears, S6 ribosomal protein phosphorylation; set-up: species or system human; conditions: CCI-779 20 mg/kg days 1-5 i.p., FNAB day 7
# Procedure: Animals were either untreated or treated with ZD1839: 150 mg/Kg daily or CCI-779: 20 mg/kg days 1-5 by intraperitoneal injection
# (§1) To obtain cancer cells, each animal tumor was sampled as described above. After collection of tumor FNAB samples, xenograft animals were subsequently treated with ZD1839 or CCI-779 for 28 days and tumor volumes were determined as described above. At day 7 of therapy, AD/DQ slides were prepared from tumor FNAB samples to retrospectively correlate the results of in vivo and ex vivo chemosentitivty tests from the same xenograft animal.
# (§2) After the treatment cells were collected, protein extracts were prepared and Western blot analysis was performed as described above. The ex vivo effect of ZD 1839 and CCI-779 on phosphorylation of ERK1/2 or S6 ribosomal proteins, respectively, was correlated with the in vivo data gathered from the FNAB smears prepared at day 7 of treatment.
# [2] = test system: S6-RP; experiment: Ex vivo FNAB drug sensitivity assay, S6-RP phosphorylation by Western blot; type: cell-based, human
# Procedure: Tumor cells were collected by FNAB from the xenograft animals before the start of treatment using a sterile 25G short needle. Tumor samples were immediately transferred into 10 ml sterile prewarmed complete RPMI-1640 culture medium containing 10% FBS, penicillin (200 μg/ml), and streptomycin (200 μg/ml). Cells were incubated with 0.04% trypan blue (Sigma) dissolved in PBS (9.1 mM Na2HPO4, 1.7 mM NaH2PO4, and 150 mM NaCl, pH 7.4). The viable (membrane-intact) and dead cells were then counted using Neubauer hemocytometer and the total viable cell count was used to calculate final working volumes. Approximately 25,000 viable tumor cells were seeded into each well of a 6-well polypropylene microplate. Cells were treated in duplicates with vehicle (control), erlotinib (5 μM) or temsirolimus (1 μM) in a humidified 5% CO2 incubator at 37° C. for 6 hours. No fibroblast and endothelial cell growth was observed. Following treatment, non-adherent and adherent cells (only a few, collected by scraping) were pooled together and centrifuged at 500×g for 5 min at 4° C. After washing with PBS, cells were lysed in 100 μL of ice-cold lysis buffer (50 mM Tris-HCl, 0.25M NaCl, 0.1% (v/v) Triton X-100, 1 mM EDTA, 50 mM NaF, and 0.1 mM Na3VO4, pH 7.4) containing protease and phosphatase inhibitors (Roche Molecular Biochemicals) and analyzed by Western blot.
# Protein concentrations obtained from FNAB samples were quantified before each experiment. Protein extracts (15 μg) were electrophoresed on a 10% (w/v) SDS-polyacrylamide gel. After electrotransfer to Immobilon-P membranes (Millipore), membranes were blocked at room temperature using SuperBlock (Pierce) for one hour. The primary antibodies were diluted at 1:1000 in 1:10 dilution of SuperBlock solution and the membranes were incubated with primary antibodies overnight at 4° C. The antibodies tested were phospho-ERK1/2 (Cell signal #9101), phospho-S6 Ribosomal Protein (Cell Signaling Technology, Beverly, Mass.) and total ERK1/2 (Cell Signaling Technology, Beverly, Mass.) and total S6 Ribosomal Protein (Cell Signaling Technology, Beverly, Mass.). The next day, the membranes were washed and incubated for 1 h at room temperature with horseradish peroxidase (HRP)-conjugated secondary antibodies, rabbit IgG-HRP (Santa Cruz Biotechnology), or mouse IgG-HRP (Santa Cruz Biotechnology) at a final dilution of 1:3000. […]
# To test if tumor cells obtained by FNAB can be used in the ex vivo assays to predict tumor response in vivo, 25,000 viable cancer cells, as determined by trypan blue dye exclusion, were treated with erlotinib or temsirolimus for six hours, after which signal pathway inhibition was analyzed by Western blot. Under these cell culture conditions no fibroblast and endothelial cell growth was detected (data not shown). […]
# [3] = test system: S6 ribosomal protein; experiment: Panc 265 xenograft FNAB cells treated ex vivo, S6 ribosomal protein phosphorylation; type: cell-based, human; conditions: Panc 265 FNAB cells; CCI-779 1 uM; 6 hours
# Procedure: as §1
# To determine viability of tumor cells obtained by FNAB, trypan blue dye exclusion assay was performed. The viability of tumor cells obtained by tumor FNAB from control animals was over 95%. Approximately 75,000 tumor cells were seeded into each well of a 6-well polypropylene microplate. Cells were treated in duplicates with vehicle (control) or with ZD1839 (5 uM) or CCI-779 (1 uM) in a humidified 5% CO2 incubator at 37° C. for different periods to determine the optimal treatment time to analyze drug effects.
# as §2
# [4] = test system: Panc 265 human pancreas cancer xenograft; experiment: Panc 265 xenograft tumor growth; type: in vivo, nude mice; conditions: CCI-779 20 mg/kg days 1-5 i.p.
# From the text: Tumor tissue was then cut into slices (5×5×0.5−1 mm diameter) and implanted subcutaneously into nude mice. Tumor slices averaging 5×5×0.5−1 mm diameter from the patient, or 3×3×0.5−1 mm dia in serial passage were implanted subcutaneously into both flanks of nude mice. Tumors were removed under sterile conditions/laminar flow and reimplanted subcutaneously in groups of 5 mice. When the tumors on second passage of each group reached 1.5 cm, they were excised and cut into pieces of 3×3×3 mm, and transplanted on another 35-40 mice.
# For the in vivo assessment experiments, treatment started when the mean tumor volumes reach approximately 200 mm.
# To obtain cancer cells, each animal tumor was sampled as described above. […] At day 7 of therapy, AD/DQ slides were prepared from tumor FNAB samples to retrospectively correlate the results of in vivo and ex vivo chemosentitivty tests from the same xenograft animal.
# [5] = test system: primary human pancreatic cancer xenograft tumors; experiment: Tumor growth (RTG) in xenograft mouse models of primary human pancreatic cancer; type: in vivo, athymic (nu+/nu+) mice
# From the text: Four-week-old female athymic (nu+/nu+) mice were purchased from Harlan (Harlan Laboratories, Washington, D.C.). The research protocol was approved by the Johns Hopkins University Animal Care and Use Committee and animals were maintained in accordance to guidelines of the American Association of Laboratory Animal Care. Briefly, frozen pancreatic xenografts in first passage in mice, after being obtained from surgical specimens of patients undergoing pancreatic resection for adenocarcinoma at the Johns Hopkins Hospital were re-implanted subcutaneously in groups of 5 mice for each patient, with 2 small pieces per mouse (F2 generation). Tumors were allowed to grow to a size of 1.5 cm at which point they were harvested, divided into small ˜3×3×3 mm pieces, and transplanted to another 18-22 mice, with two tumors per mouse. Tumors from this second mouse-to-mouse passage were allowed to grow until reaching −200 mm^3, at which time mice were randomized in the following three treatment groups, with 6 mice in each group: control (vehicle), erlotinib (50 mg/kg/day i.p.), and temsirolimus (20 mg/kg days 1-5 i.p.). Mice were monitored daily for signs of toxicity and were weighed three times per week. Tumor size was evaluated three times per week by caliper measurements using the following formula: tumor volume=[length×width^2]/2 as previously reported (19). Relative tumor growth (RTG) was calculated by tumor growth of treated mice divided by tumor growth of control mice (T/C)×100. Experiments were terminated on day 28. Tumor response was defined as sensitive, when RTG was less than 50% on day 28.
structure (smiles),measurement,setting,value
"CO[C@H]1C[C@@H]2CC[C@@H](C)[C@@](O)(O2)C(=O)C(=O)N2CCCC[C@H]2C(=O)O[C@H]([C@H](C)C[C@@H]2CC[C@@H](OC(=O)C(C)(CO)CO)[C@H](OC)C2)CC(=O)[C@H](C)/C=C(\C)[C@@H](O)[C@@H](OC)C(=O)[C@H](C)C[C@H](C)/C=C/C=C/C=C/1C [temsirolimus, Temsirolimus]",target protein phosphorylation in vivo,[1],strongly inhibited target protein phosphorylation
same,S6-RP phosphorylation ex vivo,"[2]; all tumors of the xenograft panel sensitive to therapy, temsirolimus 1 μM, 6 hours",blocked S6-RP phosphorylation
same,S6-RP phosphorylation ex vivo,"[2]; cancer cells from pancreatic cancer patient 1, six hours",only partially decreased S6-RP phosphorylation
same,phosphorylation of S6-RP ex vivo,"[2]; cells from tumor A198, temsirolimus 1 μM, 6 hours",inhibited phosphorylation of S6-RP
same,S6-RP phosphorylation ex vivo,"[2]; tumor cells of pancreatic cancer patient 2 and 3, six hours",inhibited S6-RP phosphorylation
same,activity (phosphorylation) of target protein S6 ribosomal protein ex vivo,[3],successfully inhibited the activity of its target protein
same,inhibition of tumor growth,[4],70%
same,relative growth (RTG),"[5]; all tumors except A194, temsirolimus 20 mg/kg days 1-5 i.p., day 28",less than 50%
same,tumor response,[5]; tumor A194,resistant (greater than 50% RTG and were defined as resistant)
same,tumor response,[5]; tumor A198,"sensitive (Tumor response was defined as sensitive, when RTG was less than 50% on day 28)"
